Paper PMC5572076 (Xenobiotica; the fate of foreign compounds in biological …, 2016)
Entries after “also recorded” stand apart in the source; their conditions may differ. Like-named read-outs stand apart in the source and are kept apart here. Each block holds one compound with its values, some of them ahead of it.

What was measured:
Human MRP4 = target: T1, Human MRP4 (Homo sapiens, UniProt O15439); experiment: Vesicular uptake assay, MRP4 membrane vesicles
T1 sequence (O15439 1-1325): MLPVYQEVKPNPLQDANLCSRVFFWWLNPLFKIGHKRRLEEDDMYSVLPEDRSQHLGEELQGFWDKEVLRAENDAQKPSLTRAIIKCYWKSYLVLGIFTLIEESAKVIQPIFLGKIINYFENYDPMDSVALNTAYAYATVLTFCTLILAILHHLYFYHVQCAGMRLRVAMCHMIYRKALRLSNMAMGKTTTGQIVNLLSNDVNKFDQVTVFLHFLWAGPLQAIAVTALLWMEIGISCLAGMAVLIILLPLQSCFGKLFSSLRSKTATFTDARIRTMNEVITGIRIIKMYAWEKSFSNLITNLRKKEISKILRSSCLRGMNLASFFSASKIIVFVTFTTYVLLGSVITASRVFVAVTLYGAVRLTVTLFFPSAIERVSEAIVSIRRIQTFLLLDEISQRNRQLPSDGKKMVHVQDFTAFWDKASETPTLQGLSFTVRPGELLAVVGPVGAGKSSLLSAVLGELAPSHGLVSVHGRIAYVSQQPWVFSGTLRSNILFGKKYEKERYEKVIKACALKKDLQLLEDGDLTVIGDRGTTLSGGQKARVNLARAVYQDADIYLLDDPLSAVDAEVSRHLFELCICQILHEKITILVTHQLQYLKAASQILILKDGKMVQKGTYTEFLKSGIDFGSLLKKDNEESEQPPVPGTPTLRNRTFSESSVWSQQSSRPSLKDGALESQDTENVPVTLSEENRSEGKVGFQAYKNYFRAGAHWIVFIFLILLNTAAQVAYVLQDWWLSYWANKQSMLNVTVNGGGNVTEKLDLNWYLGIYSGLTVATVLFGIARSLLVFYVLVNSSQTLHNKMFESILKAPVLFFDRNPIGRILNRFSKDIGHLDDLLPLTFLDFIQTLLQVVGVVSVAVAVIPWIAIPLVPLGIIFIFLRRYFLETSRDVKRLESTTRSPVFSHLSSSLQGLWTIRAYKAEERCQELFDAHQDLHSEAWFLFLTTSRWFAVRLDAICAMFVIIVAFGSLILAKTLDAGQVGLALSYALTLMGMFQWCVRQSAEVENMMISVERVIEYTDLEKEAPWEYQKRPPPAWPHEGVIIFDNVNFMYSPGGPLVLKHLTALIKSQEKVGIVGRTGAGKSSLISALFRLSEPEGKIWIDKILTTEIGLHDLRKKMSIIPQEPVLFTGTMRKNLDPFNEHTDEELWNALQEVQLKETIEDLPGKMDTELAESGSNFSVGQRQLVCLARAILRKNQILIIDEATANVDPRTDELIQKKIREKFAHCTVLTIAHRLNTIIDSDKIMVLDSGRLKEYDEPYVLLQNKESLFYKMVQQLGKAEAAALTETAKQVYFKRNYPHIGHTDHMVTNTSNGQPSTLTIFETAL

[1] = mice, cited from earlier work
human OAT3 = target: T2, human OAT3 (Homo sapiens, UniProt Q8TCC7); experiment: 14C-NAC uptake in HEK-OAT3 cells
T2 sequence (Q8TCC7 1-542): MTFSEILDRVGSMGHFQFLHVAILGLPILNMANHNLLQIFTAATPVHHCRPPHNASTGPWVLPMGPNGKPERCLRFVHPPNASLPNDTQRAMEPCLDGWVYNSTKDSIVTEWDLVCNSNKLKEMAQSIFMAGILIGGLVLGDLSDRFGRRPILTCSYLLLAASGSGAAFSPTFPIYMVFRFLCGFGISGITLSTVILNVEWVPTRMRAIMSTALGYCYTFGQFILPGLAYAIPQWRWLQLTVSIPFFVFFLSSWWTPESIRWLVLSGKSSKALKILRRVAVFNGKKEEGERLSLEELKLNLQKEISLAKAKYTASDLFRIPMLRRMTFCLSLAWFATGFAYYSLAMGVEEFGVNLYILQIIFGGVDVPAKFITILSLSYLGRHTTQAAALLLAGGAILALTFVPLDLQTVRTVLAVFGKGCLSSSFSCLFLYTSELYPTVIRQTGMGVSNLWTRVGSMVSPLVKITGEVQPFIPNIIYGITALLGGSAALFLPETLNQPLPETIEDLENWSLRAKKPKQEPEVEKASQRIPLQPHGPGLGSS

HEK-EV cells = experiment: 14C-NAC uptake in HEK-empty vector control cells; type: in vitro ADME, human; conditions: 200 μM probenecid, 25 min, n = 3
human OAT1 = target: T3, human OAT1 (Homo sapiens, UniProt Q4U2R8)
T3 sequence (Q4U2R8 1-563): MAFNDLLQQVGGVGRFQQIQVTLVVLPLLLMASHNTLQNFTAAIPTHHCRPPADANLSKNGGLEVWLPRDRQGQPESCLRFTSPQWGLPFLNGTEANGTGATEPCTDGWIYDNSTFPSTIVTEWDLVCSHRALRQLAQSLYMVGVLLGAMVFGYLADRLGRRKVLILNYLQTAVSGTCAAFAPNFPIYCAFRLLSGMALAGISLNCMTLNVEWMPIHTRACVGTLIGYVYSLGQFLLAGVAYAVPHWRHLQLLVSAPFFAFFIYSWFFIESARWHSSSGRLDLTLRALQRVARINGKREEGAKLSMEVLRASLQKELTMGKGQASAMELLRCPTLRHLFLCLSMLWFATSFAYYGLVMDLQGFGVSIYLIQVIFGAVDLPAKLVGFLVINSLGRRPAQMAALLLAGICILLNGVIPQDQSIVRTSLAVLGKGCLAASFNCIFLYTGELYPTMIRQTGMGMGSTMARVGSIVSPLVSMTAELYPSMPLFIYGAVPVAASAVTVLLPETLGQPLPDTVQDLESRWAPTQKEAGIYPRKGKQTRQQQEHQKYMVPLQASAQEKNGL

Human MRP1 = Human MRP1 (Homo sapiens, UniProt P33527); experiment: Vesicular uptake assay, MRP1 membrane vesicles
[2] = type: in vivo, Sprague-Dawley rats
[3] = ref Giustarini et al., 2012; cited from earlier work
[4] = ref Borgstrom et al., 1986; cited from earlier work
[5] = NAC plasma pharmacokinetics with or without probenecid, intraperitoneal; type: in vivo, Sprague-Dawley rats; conditions: juvenile rats
[6] = given into the carotid artery, rats; ref Neuwelt et al., 2001; cited from earlier work
[7] = in vitro uptake and inhibition experiments
[8] = OAT3-overexpressing cells, 25 μM NAC

Chain of Human MRP1 (P33527 whole entry): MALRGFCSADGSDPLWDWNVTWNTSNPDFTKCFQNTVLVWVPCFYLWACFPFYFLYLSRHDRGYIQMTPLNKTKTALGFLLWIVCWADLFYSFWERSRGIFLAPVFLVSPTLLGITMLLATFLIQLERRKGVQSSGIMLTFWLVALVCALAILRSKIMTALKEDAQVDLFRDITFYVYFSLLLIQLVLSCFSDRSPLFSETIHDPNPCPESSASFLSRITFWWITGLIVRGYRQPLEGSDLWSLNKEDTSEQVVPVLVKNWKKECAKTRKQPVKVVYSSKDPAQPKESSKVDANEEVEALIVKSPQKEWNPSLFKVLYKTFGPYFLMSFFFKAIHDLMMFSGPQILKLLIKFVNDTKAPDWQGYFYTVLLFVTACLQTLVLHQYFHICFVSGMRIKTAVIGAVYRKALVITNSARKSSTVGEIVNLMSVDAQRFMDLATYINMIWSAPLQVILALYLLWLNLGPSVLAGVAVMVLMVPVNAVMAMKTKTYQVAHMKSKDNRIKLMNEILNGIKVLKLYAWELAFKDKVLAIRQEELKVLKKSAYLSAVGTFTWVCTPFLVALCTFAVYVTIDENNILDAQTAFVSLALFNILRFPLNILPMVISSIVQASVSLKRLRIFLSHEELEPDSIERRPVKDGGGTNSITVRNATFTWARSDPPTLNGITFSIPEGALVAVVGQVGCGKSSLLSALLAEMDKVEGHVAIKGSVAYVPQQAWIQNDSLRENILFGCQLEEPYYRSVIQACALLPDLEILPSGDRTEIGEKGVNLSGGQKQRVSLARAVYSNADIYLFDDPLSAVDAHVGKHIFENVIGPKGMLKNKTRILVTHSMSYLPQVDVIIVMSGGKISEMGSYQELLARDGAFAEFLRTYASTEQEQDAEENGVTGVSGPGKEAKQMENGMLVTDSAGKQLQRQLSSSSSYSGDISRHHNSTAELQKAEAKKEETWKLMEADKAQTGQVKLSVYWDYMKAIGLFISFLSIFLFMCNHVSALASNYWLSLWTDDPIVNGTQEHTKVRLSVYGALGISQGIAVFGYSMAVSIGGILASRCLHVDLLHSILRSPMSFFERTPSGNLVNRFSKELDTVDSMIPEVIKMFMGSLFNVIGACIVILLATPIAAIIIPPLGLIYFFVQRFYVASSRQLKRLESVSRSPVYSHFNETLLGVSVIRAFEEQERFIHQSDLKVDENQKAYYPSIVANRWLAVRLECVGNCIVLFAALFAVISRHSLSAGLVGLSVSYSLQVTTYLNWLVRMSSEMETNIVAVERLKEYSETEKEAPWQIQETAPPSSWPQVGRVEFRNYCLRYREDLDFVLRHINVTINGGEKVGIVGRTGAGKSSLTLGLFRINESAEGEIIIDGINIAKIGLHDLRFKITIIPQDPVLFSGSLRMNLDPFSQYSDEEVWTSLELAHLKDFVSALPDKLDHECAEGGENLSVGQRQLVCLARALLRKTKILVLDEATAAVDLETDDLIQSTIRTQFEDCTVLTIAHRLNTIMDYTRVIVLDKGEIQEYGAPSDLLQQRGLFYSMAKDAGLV

Compound: C[C@]12CC[C@@H]3c4ccc(O)cc4CC[C@H]3[C@@H]1CC[C@@H]2O[C@@H]1O[C@H](C(=O)O)[C@@H](O)[C@H](O)[C@H]1O [E217βG, estradiol-17β-D- glucuronide]
ATP-dependent uptake of positive control substrate (Human MRP4; MRP4 vesicles, 0.25–100 μM, 0.5 minutes): saturable uptake

Compound: CC(=O)N[C@@H](CS)C(N)=O
detection in the brain ([1]; IP and oral administration, ref Offen et al., 2004): able to detect

decrease of NAC uptake by probenecid (human OAT3; OAT3, 200 μM probenecid pre-incubation 5 min, 10 min uptake, n = 3): 93.9%
Compound: CCCN(CCC)S(=O)(=O)c1ccc(C(=O)O)cc1 [probenecid]
effect of probenecid on NAC uptake by control cells (HEK-EV cells): no difference

saturation of concentration-dependent NAC uptake (human OAT1; HEK-OAT1, 25 min, up to 10 mM NAC): did not reach saturation
NAC uptake rate (human OAT1; OAT1-overexpressing cells, 25 μM NAC): 4.2 ± 0.1 pmol/mg/min
time up to which NAC uptake is linear (human OAT1; OAT1-overexpressing cells, 25 μM NAC, latest time point measured): ≥ 42.5 min
substrate status for OAT1 (human OAT1; [7]): substrate
saturation of concentration-dependent NAC uptake (human OAT3; HEK-OAT3, 10 min, up to 10 mM NAC): did not reach saturation
NAC uptake rate (human OAT3; [8]): 37.7 ± 1.9 pmol/mg/min
time up to which NAC uptake is linear (human OAT3; [8]): at least 15 minutes
substrate status for OAT3 (human OAT3; [7]): substrate
substrate status for MRP1 (Human MRP1; membrane vesicles): not a substrate
substrate status for MRP4 (Human MRP4; membrane vesicles): not a substrate
NAC brain levels at late time points ([2]; NAC and probenecid group, up to last sampling time point (8 h)): remained measurable
apparent plasma clearance (CL/F) ([5]; NAC 163 mg/kg ip alone): 18.55 ± 0.483 mL/min/kg
apparent plasma clearance (CL/F) ([5]; NAC 163 mg/kg ip in combination with probenecid 150 mg/kg ip): 11.2 ± 0.137 mL/min/kg
Compound: CC(=O)N[C@@H](CS)C(=O)O [NAC, N-acetylcysteine]
levels in the brain ([1]; IP administration, ref Erickson et al., 2012): low levels of NAC were measurable
ATP-dependent, transporter-mediated uptake of NAC vs AMP (negative control) (Human MRP1; MRP1 vesicles, 25 μM NAC): No uptake; also recorded: not statistically different
ATP-dependent, transporter-mediated uptake of NAC vs AMP (negative control) (Human MRP4; MRP4 vesicles, 25 μM NAC): No uptake; also recorded: not statistically different
NAC brain levels at late time points ([2]; NAC only group, 6 h and 8 h time points): below the limit of quantificaiton; also recorded: below limit of quantification
log D [3]: −5.4
renally eliminated [4]: approximately 30%
crossing of the BBB [6]: can cross the BBB
